Results published in patent US20240368239A1, “Novel bispecific protein and use thereof” (SL METAGEN, priority 2020, published 2024).

Test system: B6 normal mice
Assay: Fluorescence spectrometry tissue distribution of Cy5.5-labelled substances
Format: in vivo
Conditions: 24 hours after administration, Cy5.5 label
Experimental: Next, the present inventors performed an experiment in B6 normal mice in order to observe the distribution in each tissue and organ according to the administration of a bispecific fusion protein according to an embodiment of the present invention. Cy5.5 was used as a fluorophore for tracking the distribution after administration of each substance. Buffer exchange was performed for each substance to be administered, MG12-1, MG12-4, and GLP-1Fc homodimer with boric acid buffer (pH 8.5), and with reference to the protocol of the Cy5.5 labeling kit (GE, #PA15605) were allowed to react with an appropriate amount of Cy5.5 overnight under refrigeration conditions. Unreacted Cy5.5 in the reaction-completed substance was removed through the PBS substitution process, and whether Cy5.5 was reacted well was confirmed through the final SDS-PAGE. Each administered substance was diluted with 10% DMSO/PBS to have the same fluorescence intensity using an ELISA plate reader capable of measuring fluorescence intensity before being administered.

Cy5.5 [reference compound]
0: Average fluorescence intensity, Brain | Average fluorescence intensity, Large intestine | Average fluorescence intensity, Small intestine
